Data taken from the supplement of paper PMC10307832.

Legend:
Experiment in all cases: relative viability (nuclei count vs DMSO), 5 days (fraction); higher = more cells survive
[1] = compound: Cc1cc(Nc2cc(N3CCN(C)CC3)nc(Sc3ccc(NC(=O)C4CC4)cc3)n2)n[nH]1 [Tozasertib]
Procedure, shortened: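 Nuclei counted with MetaXpress define viability as the ratio of treated to vehicle wells, given as a median across plates. The lung cancer cell lines were in 1536-well plates, pinned with five √10-spaced library-drug doses and imaged at 4× after 5 days and Hoechst staining. Plates passed with control CV below 25% and at least one doubling.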

[2] = compound: Cc1cc(Nc2cc(N3CCN(C)CC3)nc(Sc3ccc(NC(=O)C4CC4)cc3)n2)n[nH]1 [Tozasertib] + Cc1nc(NC(=O)N2CCC[C@H]2C(N)=O)sc1-c1ccnc(C(C)(C)C(F)(F)F)c1 [Alpelisib] (partner 2 µM)
Procedure, shortened: (§1)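 Lung cancer cell lines in 1536-well plates got either a single drug or a fixed anchor-drug dose together with five library-drug doses (not always all listed) in √10 steps, by pin tool, on the day after seeding. Nuclei were counted after 5 days, and relative viability is the treated-to-vehicle ratio of nuclei counts. Values are medians of duplicate plates.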

[3] = compound: Cc1cc(Nc2cc(N3CCN(C)CC3)nc(Sc3ccc(NC(=O)C4CC4)cc3)n2)n[nH]1 [Tozasertib] + COc1cccc2cc(-c3nc([C@H]4CC[C@H](C(=O)O)CC4)n4ncnc(N)c34)[nH]c12 [OSI-027] (partner 0.5 µM)
Procedure, shortened: as §1

[4] = compound: Cc1cc(Nc2cc(N3CCN(C)CC3)nc(Sc3ccc(NC(=O)C4CC4)cc3)n2)n[nH]1 [Tozasertib] + Cc1nc(Nc2ncc(C(=O)Nc3c(C)cccc3Cl)s2)cc(N2CCN(CCO)CC2)n1 [Dasatinib] (partner 0.075 µM)
Procedure, shortened: as §1

Cell Line	relative viability ([1]; 0.004 µM)	relative viability ([1]; 0.01265 µM)	relative viability ([1]; 0.04 µM)	relative viability ([1]; 0.1265 µM)	relative viability ([2]; first compound 0.004 µM)	relative viability ([2]; first compound 0.01265 µM)	relative viability ([2]; first compound 0.04 µM)	relative viability ([2]; first compound 0.1265 µM)	relative viability ([1]; 0.1 µM, anchor plate)	relative viability ([3]; first compound 0.004 µM)	relative viability ([3]; first compound 0.01265 µM)	relative viability ([3]; first compound 0.04 µM)	relative viability ([3]; first compound 0.1265 µM)	relative viability ([4]; first compound 0.004 µM)	relative viability ([4]; first compound 0.01265 µM)	relative viability ([4]; first compound 0.04 µM)	relative viability ([4]; first compound 0.1265 µM)
A549	1.02	0.982	1.05	0.488	0.686	0.826	0.759	0.211									
HCC-15	1.06	0.936	1.04	0.687	0.942	0.841		0.728	0.393	0.745	0.64	0.665	0.419	0.61	0.532	0.624	0.319
LCLC-103H	1.06	1.06	1.02	0.952	0.817	0.895	0.952	0.994	0.499	0.504		0.503	0.388	0.539	0.452	0.456	0.478
NCI-H1563	1.04	1.07	1.02	0.884	0.944	0.794	0.94	0.874			0.763	0.713	0.701	0.567	0.481	0.541	0.453
NCI-H2228	1.08	1.07	1.03	0.607	0.806		0.556	0.434	0.265	0.703	0.506	0.528	0.29	0.493	0.493	0.546	0.232
NCI-H520	1.07	0.934	1.07	0.547	0.945	0.844	0.889	0.864	0.458	0.356	0.26	0.254	0.234	0.265	0.203	0.209	0.138
COR-L 105	0.956	0.974	0.957	0.473		1.29	1.32	0.739	0.36	0.698	0.68	0.731	0.343	0.352	0.291	0.32	0.214
SW 1573	1.02	0.904	0.945	0.48	0.751	0.674	0.615	0.702	0.191	0.619	0.526	0.512	0.204	0.505	0.43	0.361	0.0939
NCI-H647	1.04		0.926	0.458	1.43	0.915	1.06	0.371	0.279	0.836	0.763	0.763	0.33	0.204	0.185	0.181	0.0838
LOU-NH91	0.787	0.918	1.1	0.9		0.736	0.731	0.694	0.659		0.675	0.763	0.728		0.519	0.573	0.499
NCI-H2009	1.03	0.951	1	0.885	1.18	1.17	1.15	1.14	0.74	0.635	0.614	0.668	0.51	0.307	0.292	0.266	0.213
LC-2-ad	1.06	0.913	0.928	0.494	0.881	0.82	1.02	0.354	0.453	0.941	0.692	0.734	0.374	0.624	0.565	0.482	0.236
ABC-1	1.02	0.858	0.767	0.412	0.916	1.06	0.721	0.816	0.186	0.542	0.495	0.58	0.207	0.494	0.535	0.577	0.258
NCI-H358	1		0.977	0.37	1.08	0.863	0.83	0.182	0.109	0.779	0.803	0.982	0.125	0.154	0.152	0.187	0.121
NCI-H1975	1.04	0.91	1.06	0.85	0.747	0.749	0.763	0.586	0.759	0.968	0.758		0.683	0.492	0.407	0.342	0.308
NCI-H2347	1.03	1	1.08	0.941	0.996	1.09	0.871	0.963	0.573	0.447		0.369	0.389	0.344		0.262	0.281
NCI-H838	0.994	0.951	1.06	0.683	1.15	0.942	1.12	1.03	0.265	0.485	0.354	0.426	0.257	0.304	0.307	0.225	0.256
NCI-H2342	0.997			0.909					0.52	0.654	0.525	0.657	0.582	0.338	0.293	0.314	0.292
NCI-H1650	1.03	0.918	1.09	0.502					0.418	0.689	0.602	0.621	0.302	0.311	0.377		0.167
ChaGo-K-1	1.06	1	1	0.858					0.233	0.584	0.511	0.562	0.31	0.624	0.616	0.648	0.398
